pIC50: −log10 of the molar value. Some results are limits rather than exact numbers.

Vascular endothelial growth factor receptor 2, sequence (P35968 whole entry): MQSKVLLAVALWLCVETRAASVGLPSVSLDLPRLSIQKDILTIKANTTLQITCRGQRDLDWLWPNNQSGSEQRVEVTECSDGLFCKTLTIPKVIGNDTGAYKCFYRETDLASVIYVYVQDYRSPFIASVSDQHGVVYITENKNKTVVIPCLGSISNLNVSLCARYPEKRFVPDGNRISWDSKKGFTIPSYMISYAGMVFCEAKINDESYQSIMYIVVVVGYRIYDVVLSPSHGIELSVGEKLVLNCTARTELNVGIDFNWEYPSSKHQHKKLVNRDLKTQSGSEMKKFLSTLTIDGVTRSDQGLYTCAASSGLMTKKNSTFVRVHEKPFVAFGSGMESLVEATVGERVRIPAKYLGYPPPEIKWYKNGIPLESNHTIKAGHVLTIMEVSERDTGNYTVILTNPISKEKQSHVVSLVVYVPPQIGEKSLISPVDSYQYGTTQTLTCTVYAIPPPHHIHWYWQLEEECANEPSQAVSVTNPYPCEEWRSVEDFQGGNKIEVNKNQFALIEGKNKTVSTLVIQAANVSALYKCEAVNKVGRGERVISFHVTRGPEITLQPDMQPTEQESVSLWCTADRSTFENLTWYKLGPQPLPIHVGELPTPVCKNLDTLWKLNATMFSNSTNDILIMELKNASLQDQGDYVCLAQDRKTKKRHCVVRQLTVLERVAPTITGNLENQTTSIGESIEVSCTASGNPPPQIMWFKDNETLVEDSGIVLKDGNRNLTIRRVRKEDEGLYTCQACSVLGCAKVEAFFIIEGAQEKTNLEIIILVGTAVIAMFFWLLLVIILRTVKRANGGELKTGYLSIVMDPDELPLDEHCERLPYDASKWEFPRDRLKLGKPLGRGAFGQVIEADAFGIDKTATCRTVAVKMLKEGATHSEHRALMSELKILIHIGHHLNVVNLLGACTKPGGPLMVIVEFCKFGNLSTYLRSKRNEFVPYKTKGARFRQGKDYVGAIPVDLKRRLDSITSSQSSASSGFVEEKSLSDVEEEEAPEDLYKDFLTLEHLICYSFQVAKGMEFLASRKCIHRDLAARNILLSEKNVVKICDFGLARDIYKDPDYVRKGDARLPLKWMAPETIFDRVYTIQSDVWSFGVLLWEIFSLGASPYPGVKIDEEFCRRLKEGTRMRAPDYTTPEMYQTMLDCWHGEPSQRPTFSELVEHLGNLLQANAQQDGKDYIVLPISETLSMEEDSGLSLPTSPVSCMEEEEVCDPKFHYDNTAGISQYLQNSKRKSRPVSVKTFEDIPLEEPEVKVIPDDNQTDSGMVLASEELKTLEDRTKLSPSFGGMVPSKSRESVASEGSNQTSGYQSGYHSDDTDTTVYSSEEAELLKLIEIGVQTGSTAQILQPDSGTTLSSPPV

This assay has as its target Vascular endothelial growth factor receptor 2 (Homo sapiens, UniProt P35968). In words: Inhibition of KDR in presence of 1 mM ATP.
Broadly, the pIC50 is the IC50 on a negative log10 scale, so that one unit is a factor of ten. Consider `Cc1cccc(NC(=O)Nc2ccc(-c3cccc4c3C(=O)NC4)cc2)c1`, for which the negative-log IC50 (pIC50) is under 3.00.
Under `Cc1cccc(NC(=O)Nc2ccc(-c3cccc4c(N)n[nH]c34)cc2)c1` stands under 3.00; under `O=C(Nc1ccc(-c2cccc3c(=O)[nH][nH]c23)cc1)Nc1cccc(C(F)(F)F)c1`, 7.40.
Under `O=C(Nc1ccc(-c2cccc3[nH][nH]c(=O)c23)cc1)Nc1cccc(C(F)(F)F)c1` stands 8.00.

The values are drawn from ChEMBL document CHEMBL2046389, “Contribution of indazolinone tautomers to kinase activity” (Bioorg Med Chem Lett, 2012).
